Measurements from publication doi:10.1101/2025.08.13.670122v1 (bioRxiv, 2025).

How the values were obtained:
Sprague-Dawley rats = experiment: Simultaneous in vivo echocardiography and blood pressure measurements; design: species or system rat; conditions: intrajugular perfusion 0.96 nmol kg−1 min−1, n = 4; for Change in left ventricular ejection fraction (ΔEF) / cardiac contractility: isoflurane-anesthetized Sprague-Dawley rats; for Change in mean arterial blood pressure (ΔMABP): isoflurane-anesthetized normotensive Sprague-Dawley rats
Experimental: All ligands were administered intravenously at the same dose (0.96 nmol kg^−1 min^−1), by instrumentalizing adult Sprague-Dawley rats for simultaneous recordings of arterial blood pressure and cardiac function (Figure 5A).
Figure 5. Simultaneous in vivo cardiac ultrasound imaging and blood pressure monitoring of adult Sprague-Dawley rats following constant administration of AT1R ligands. (A) The acquisition setup for each isoflurane-anesthetized rat includes a catheter in the right femoral artery connected to a TDX300 Micro-med transducer and BPA-100c blood pressure (BP) analyzer for continuous BP measurement, while drug administration is performed via a catheter inserted in the left jugular vein and linked to an automatic syringe pump set at a flow rate of 30 µl*min^−1. […] The syringe pump is initiated at 0 s, and the catheter’s saline dead volume is flushed in approximately 180 s.
Figure 6. […] Changes in mean arterial blood pressure (ΔMABP; A), ejection fraction (ΔEF; B), left ventricular end-systolic (ΔLVES; C) and end-diastolic (ΔLVEDV; D) volumes, and stroke volume (ΔSV; E) were measured from simultaneous in vivo cardiac blood pressure monitoring and ultrasound imaging. […] The syringe pump is initiated at 0 s, and the catheter’s saline dead volume is flushed in approximately 180 s. […] Statistical analyses were performed with an unpaired standard t-test. * p < 0.05, ** p < 0.01 and ***p<0.005.
Male Sprague-Dawley rats (230–350 g, 7–9 weeks of age) were initially anesthetized with 5% isoflurane (mixed with 100% oxygen at a flow rate of 2.5 L/min). The animal was placed in a supine position on a thermostatic pad set at 37°C, and anesthesia was maintained with 2% isoflurane, confirmed by the absence of reflexes to toe pinch. The right femoral artery was cannulated with a PE 50 catheter filled with heparinized saline (10 units/mL) and connected to a Micro-Med transducer (TDX-300) and a Micro-Med blood pressure analyzer (BPA-100c). The left jugular vein was also cannulated with a PE 50 catheter filled with heparinized saline (10 units/mL) and connected to a syringe operated by an automatic pump with a flow rate of 30 µL min-1. […] Blood pressure parameters were continuously obtained throughout the experiment, and heart function parameters were simultaneously captured at various time points using a Vevo3100 echocardiography system equipped with an MX250 ultrasound probe (FUJIFILM VisualSonics). The ejection fraction was determined from a parasternal long-axis view of the left ventricle in B-mode imaging and analyzed using Vevo LAB 5.7.1 (FUJIFILM VisualSonics). Data were presented as the mean ± SEM of four different rats per group. Statistical analyses were conducted with standard analysis of variance (ANOVA) followed by Tukey’s multiple comparisons test. […]

endogenous AT1R [1] = biological target: T1, endogenous AT1R (Rattus norvegicus, UniProt P25095); experiment: Rho BRET sensor in rat primary VSMC with endogenous AT1R; assay type: cell-based; conditions: adenoviral Rho BRET sensor, 1 min 30 s stimulation, mean ± SEM of at least three to five independent experiments, read-out: EC50 Rho in VSMCs
T1 construct: expressing low levels of endogenous AT1R; endogenous in cells; host or cells: rat primary VSMC, passages 13-15
T1 sequence (P25095 1-359): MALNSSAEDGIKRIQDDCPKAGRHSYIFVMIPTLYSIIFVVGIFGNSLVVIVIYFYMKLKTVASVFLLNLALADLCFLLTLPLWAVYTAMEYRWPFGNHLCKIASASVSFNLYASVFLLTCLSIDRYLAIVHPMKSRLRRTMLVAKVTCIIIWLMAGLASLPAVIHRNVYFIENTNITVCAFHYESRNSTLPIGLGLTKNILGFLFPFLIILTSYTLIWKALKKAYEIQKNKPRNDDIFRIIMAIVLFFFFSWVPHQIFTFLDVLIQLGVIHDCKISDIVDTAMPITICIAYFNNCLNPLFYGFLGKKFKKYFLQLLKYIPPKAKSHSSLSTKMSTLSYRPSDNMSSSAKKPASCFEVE
Description: (§1) We next assessed the analogs’ ability to engage Gαq by assessing either the PKC or Rho responses in rat primary vascular smooth muscle cell (VSMC) culture, expressing low levels of endogenous AT1R (between 25–50 fmol/mg) (Figure 4, Table 6).
(§2) The coding regions of the PKC-c1b sensor, PKN-RBD-RlucII, and rGFPcaax were PCR-amplified and subcloned into the KpnI/XhoI sites of the pENTR3C vector (Invitrogen), respectively. These were then transferred into the adenoviral expression vector pAd/CMV/V5-DEST (Invitrogen), via gateway cloning (pAD-CMV-PKC-c1b, pAD-CMV-PKN-RBD-RLucII, and pAD-CMV-rGFPcaax). Viruses containing the sensor codes were generated following a previously outlined process.[49] […] The following day, cells were transfected with 4 µg of PacI-digested pAd5-CMVsensors using Lipofectamine 2000 (Invitrogen). After 7–10 days post-transfection, mature virus particles were gleaned via the collection of cells and media, which then underwent multiple cycles of freezing and thawing, followed by centrifugation. The harvested virus was amplified by re-infection on 100-mm dishes of confluent HEK293A cells, and harvested 48-72 h later. Viral titers were determined by serial dilution of adenovirus stock and subsequent infection of HEK293A cells in 96-well plates. 36 h after infection, cells were stained using an anti-hexon antibody (ab8249; Abcam), and hexon-expressing cells were tallied via fluorescence microscopy. The virus was then stored at −80°C. After this, rat VSMCs (between the 13th to 15th passages) were seeded at a density of 20,000 cells in each well of white 96-well plates 24 h before transduction with the viral vector. The cells were then transduced with the PKC sensor-adenovirus (3 μL per well) or Rho sensor (1 μL each per well of PKN-RBD-RLucII-adnovirus and rGFP-caax adenovirus). After 24 h, the medium was replaced. 48 h post-viral transduction, the cells were thoroughly washed with Tyrode’s buffer. Finally, BRET assays were carried out as detailed below.
(§3) On the day of the experiment, each well was washed with 80 µL of Tyrode’s buffer (140 mM NaCl, 2.7 mM KCl, 1 mM CaCl2, 12 mM NaHCO3, 5.6 mM D-glucose, 0.5 mM MgCl2, 0.37 mM NaH2PO4, 25 mM Hepes (pH 7.4)). This was followed by incubation for 1 h in Tyrode’s buffer at room temperature. For the Gαq, β-arrestin-2, and PKC biosensors used in HEK293 cells, coelenterazine 400A (at a final concentration of 5 μM) was added 10 min before stimulation. Cells were then stimulated with increasing doses of the indicated ligand, and BRET signals were measured using a Tristar2 (Berthold) microplate reader 10 min later. For the PKC and Rho biosensors in VSMCs, and the Rho biosensor in ΔG12/13 cells, cells were similarly stimulated with ligands for 1 min, 1 min 30 s, and 3 min, respectively, before BRET measurement. […] BRET signals were then measured using a Synergy2 (BioTek) microplate reader. The applied filter set was 410/80 nm and 515/30 nm, designed to detect the light emissions of RlucII (Renilla luciferase) (donor) and rGFP (acceptor), respectively.

Plasma stability = assay type: in vitro ADME; conditions: male Sprague-Dawley rat plasma, 6 μL of 1 mM compound (10% DMSO) in 27 μL plasma, 37°C, 0-24 h, UPLC-MS, one-phase decay, mean ± SEM of at least three experiments, read-out: Plasmatic half-life t1/2 (±SEM)
Experimental: The degradation was quenched by adding 140 μL of 1% formic acid in an acetonitrile-ethanol (1:1) solution containing 0.25 mM of N,N-dimethylbenzamide (used as an internal standard). This mixture was initially transferred to an Impact Protein Precipitation filter plate (Phenomenex, California), the filtrates from which were subsequently collected in a second 96-well UPLC plate. Both plates were centrifuged at 500 g for 10 min while maintaining a temperature of 4°C. The filtrates were then diluted with 30 μL of distilled water and processed for analysis using an Acquity UPLC-MS system class H (using an Acquity UPLC protein BEH C18 column that measured 2.1 mm × 50 mm and had 1.7 μm particles with pores 130 Å in width). The peptide half-life, derived from the degradation curve, was calculated using the exponential one-phase decay function in GraphPad Prism 9. Degradation was estimated by comparing the mass spectrum at each point with those at the zero-minute mark. The data were presented as a mean ± SEM of at least three unique experiments, each performed in singlicate.

endogenous AT1R [2] = biological target: T1, endogenous AT1R; experiment: PKC BRET sensor in rat primary VSMC with endogenous AT1R; assay type: cell-based; conditions: adenoviral PKC BRET sensor, 1 min stimulation, mean ± SEM of at least three to five independent experiments, read-out: EC50 PKC in VSMCs
Description: as §1, §2, §3

| SMILES | Change in left ventricular ejection fraction (ΔEF) / cardiac contractility (Sprague-Dawley rats) | Change in mean arterial blood pressure (ΔMABP) (Sprague-Dawley rats) | EC50 (endogenous AT1R [1]) [µM] | half-life at 182 µM (Plasma stability) [h] | EC50 (endogenous AT1R [2]) [µM] |
| --- | --- | --- | --- | --- | --- |
| CC[C@H](C)[C@H](NC(=O)[C@H](Cc1ccc(O)cc1)NC(=O)[C@@H](NC(=O)[C@H](CCCNC(=N)N)NC(=O)[C@@H](N)CC(=O)O)C(C)C)C(=O)N[C@@H](Cc1c[nH]cn1)C(=O)N1CCC[C@H]1C(=O)N[C@@H](Cc1ccccc1)C(=O)O [AngII, Angiotensin II] | significant decrease in cardiac ejection fraction of the left ventricle | rapid and sustained increase in arterial blood pressure | – | – | – |
| CCCc1nc(C(C)(C)O)c(C(=O)O)n1Cc1ccc(-c2ccccc2-c2nnn[nH]2)cc1 [Olmesartan] | did not alter the cardiovascular parameters measured | did not alter the cardiovascular parameters measured | – | – | – |
| CC[C@H](C)[C@H](NC(=O)[C@H](Cc1ccc(O)cc1)NC(=O)[C@@H](NC(=O)[C@H](CCCNC(=N)N)NC(=O)CNC)C(C)C)C(=O)N[C@@H](Cc1cnc[nH]1)C(=O)N1CCC[C@H]1C(=O)N[C@H](C)C(=O)O [TRV027, reference compound] | – | – | > 10 | 16.1 ± 1.2 | > 10 |
